Experimental data from US20230203043A1, “NOVEL IMIDAZOPYRAZINE DERIVATIVES” (Hoffmann-La Roche Inc., priority 2020, published 2023).
Counter-ions that a name gives are not always drawn.

System: Acinetobacter baumannii ATCC17961
Experiment: Antimicrobial susceptibility testing: 90% growth inhibitory concentration (IC90) determination in Iso-Sensitest broth, OD600 growth
Type: cell-based
Conditions: Acinetobacter baumannii, ATCC17961, 16 h, read-out: A. baumannii ATCC 17961 IC90 (uM), strain ATCC 17961, OD600 growth over 16 h
Outline: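 Twofold compound dilutions (e.g. 50 to 0.097 μM final) in Iso-Sensitest broth with ~5×10^(5) CFU/ml, 35±2 °C. OD600 read every 20 min over 16 h; IC90 from growth inhibition during logarithmic phase.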

| Structure (SMILES) | IC90 [µM] |
| --- | --- |
| Cc1ccc(Cn2cc(-c3cnc4c(Nc5ccc(C(=O)N6CCNCC6)c(Cl)c5)nccn34)c(C(F)(F)F)n2)nn1 [Example 163, [2-chloro-4-[[3-[1-[(6-methylpyridazin-3-yl)methyl]-3-(trifluoromethyl)pyrazol-4-yl]imidazo[1,2-a]pyrazin-8-yl]amino]phenyl]-piperazin-1-ylmethanone formate] | 1.27 |
| CN(C)CCNC(=O)CNC(=O)c1ccc(Nc2nccn3c(-c4c[nH]nc4C(F)(F)F)cnc23)cc1Cl [Example 165, 2-chloro-N-[2-[2-(dimethylamino)ethylamino]-2-oxoethyl]-4-[[3-[3-(trifluoromethyl)-1H-pyrazol-4-yl]imidazo[1,2-a]pyrazin-8-yl]amino]benzamide formate] | 2.52 |
| O=C(c1ccc(Nc2nccn3c(-c4cn(Cc5ncccn5)nc4C(F)(F)F)cnc23)cc1Cl)N1CCNCC1 [Example 169, [2-chloro-4-[[3-[1-(pyrimidin-2-ylmethyl)-3-(trifluoromethyl)pyrazol-4-yl]imidazo[1,2-a]pyrazin-8-yl]amino]phenyl]-piperazin-1-ylmethanone formate] | 0.392 |
| N#CCn1cc(-c2cnc3c(Nc4ccc(C(=O)N5CCN(C(=O)N6CC[C@H](N)C6)CC5)c(Cl)c4)nccn23)c(C(F)(F)F)n1 [Example 180, 2-[4-[8-[4-[4-[(3S)-3-aminopyrrolidine-1-carbonyl]piperazine-1-carbonyl]-3-chloroanilino]imidazo[1,2-a]pyrazin-3-yl]-3-(trifluoromethyl)pyrazol-1-yl]acetonitrile formate] | 0.182 |
| Cn1nccc1Cn1cc(-c2cnc3c(Nc4ccc(C(=O)N5CCNCC5)c(Cl)c4)nccn23)c(C(F)(F)F)n1 [Example 181, [2-chloro-4-[[3-[1-[(2-methylpyrazol-3-yl)methyl]-3-(trifluoromethyl)pyrazol-4-yl]imidazo[1,2-a]pyrazin-8-yl]amino]phenyl]-piperazin-1-ylmethanone formate] | 0.293 |
| O=C(c1ccc(Nc2nccn3c(-c4cn(Cc5cncnc5)nc4C(F)(F)F)cnc23)cc1Cl)N1CCNCC1 [Example 182, [2-chloro-4-[[3-[1-(pyrimidin-5-ylmethyl)-3-(trifluoromethyl)pyrazol-4-yl]imidazo[1,2-a]pyrazin-8-yl]amino]phenyl]-piperazin-1-ylmethanone formate] | 0.368 |
| Cn1ccc(Cn2cc(-c3cnc4c(Nc5ccc(C(=O)N6CCNCC6)c(Cl)c5)nccn34)c(C(F)(F)F)n2)n1 [Example 183, [2-chloro-4-[[3-[1-[(1-methylpyrazol-3-yl)methyl]-3-(trifluoromethyl)pyrazol-4-yl]imidazo[1,2-a]pyrazin-8-yl]amino]phenyl]-piperazin-1-ylmethanone formate] | 0.372 |
| Cc1cc(Cn2cc(-c3cnc4c(Nc5ccc(C(=O)N6CCNCC6)c(Cl)c5)nccn34)c(C(F)(F)F)n2)nn1C [Example 185, [2-chloro-4-[[3-[1-[(1,5-dimethylpyrazol-3-yl)methyl]-3-(trifluoromethyl)pyrazol-4-yl]imidazo[1,2-a]pyrazin-8-yl]amino]phenyl]-piperazin-1-ylmethanone formate] | 0.65 |

Same assay, conditions: Acinetobacter baumannii, ATCC17961, 16 h, strain ATCC 17961, OD600 growth over 16 h, read-out: A. baumannii ATCC 17961 IC90

| Structure (SMILES) | IC90 [µM] |
| --- | --- |
| C#CCn1cc(-c2cnc3c(Nc4ccc(C(=O)NCCOCCN)c(CC)c4)nccn23)c(C(F)(F)F)n1 [Example 174, N-[2-(2-aminoethoxy)ethyl]-2-ethyl-4-[[3-[1-prop-2-ynyl-3-(trifluoromethyl)pyrazol-4-yl]imidazo[1,2-a]pyrazin-8-yl]amino]benzamide] | 0.081 |
| N#CCn1cc(-c2cnc3c(Nc4ccc(C(=O)N5CCN(C(=O)[C@H]6CCCN6)CC5)c(Cl)c4)nccn23)c(C(F)(F)F)n1 [Example 186, 2-[4-[8-[3-chloro-4-[4-[(2R)-pyrrolidine-2-carbonyl]piperazine-1-carbonyl]anilino]imidazo[1,2-a]pyrazin-3-yl]-3-(trifluoromethyl)pyrazol-1-yl]acetonitrile] | 0.206 |

Now from value to compound:

| IC90 [µM] | Structure (SMILES) |
| --- | --- |
| 1.93 | N[C@H]1CCN(C(=O)CNC(=O)c2ccc(Nc3nccn4c(-c5c[nH]nc5C(F)(F)F)cnc34)cc2Cl)C1 [Example 164, N-[2-[(3S)-3-aminopyrrolidin-1-yl]-2-oxoethyl]-2-chloro-4-[[3-[3-(trifluoromethyl)-1H-pyrazol-4-yl]imidazo[1,2-a]pyrazin-8-yl]amino]benzamide] |
| 4.48 | NCCNC(=O)CNC(=O)c1ccc(Nc2nccn3c(-c4c[nH]nc4C(F)(F)F)cnc23)cc1Cl [Example 166, N-[2-(2-aminoethylamino)-2-oxoethyl]-2-chloro-4-[[3-[3-(trifluoromethyl)-1H-pyrazol-4-yl]imidazo[1,2-a]pyrazin-8-yl]amino]benzamide] |
| 0.369 | O=C(NC1CN(C(=O)c2ccc(Nc3nccn4c(-c5c[nH]nc5C(F)(F)F)cnc34)cc2Cl)C1)N[C@@H]1CCNC1 [Example 168, 1-[1-[2-chloro-4-[[3-[3-(trifluoromethyl)-1H-pyrazol-4-yl]imidazo[1,2-a]pyrazin-8-yl]amino]benzoyl]azetidin-3-yl]-3-[(3R)-pyrrolidin-3-yl]urea] |
| 0.475 | N#CCn1cc(-c2cnc3c(Nc4ccc(C(=O)N5CC(NC(=O)C6CCNCC6)C5)c(Cl)c4)nccn23)c(C(F)(F)F)n1 [Example 170, N-[1-[2-chloro-4-[[3-[1-(cyanomethyl)-3-(trifluoromethyl)pyrazol-4-yl]imidazo[1,2-a]pyrazin-8-yl]amino]benzoyl]azetidin-3-yl]piperidine-4-carboxamide] |
| 0.509 | N#CCn1cc(-c2cnc3c(Nc4ccc(C(=O)N5CC(NC(=O)N[C@@H]6CCNC6)C5)c(Cl)c4)nccn23)c(C(F)(F)F)n1 [Example 171, 1-[1-[2-chloro-4-[[3-[1-(cyanomethyl)-3-(trifluoromethyl)pyrazol-4-yl]imidazo[1,2-a]pyrazin-8-yl]amino]benzoyl]azetidin-3-yl]-3-[(3R)-pyrrolidin-3-yl]urea] |
| 0.832 | N#CCn1cc(-c2cnc3c(Nc4ccc(C(=O)N5CC(NC(=O)N[C@H]6CCNC6)C5)c(Cl)c4)nccn23)c(C(F)(F)F)n1 [Example 172, 1-[1-[2-chloro-4-[[3-[1-(cyanomethyl)-3-(trifluoromethyl)pyrazol-4-yl]imidazo[1,2-a]pyrazin-8-yl]amino]benzoyl]azetidin-3-yl]-3-[(3S)-pyrrolidin-3-yl]urea] |
| 1.11 | N#CCn1cc(-c2cnc3c(Nc4ccc(C(=O)N5CC(NC(=O)[C@@H]6C[C@@H](O)CN6)C5)c(Cl)c4)nccn23)c(C(F)(F)F)n1 [Example 173, (2S,4R)-N-[1-[2-chloro-4-[[3-[1-(cyanomethyl)-3-(trifluoromethyl)pyrazol-4-yl]imidazo[1,2-a]pyrazin-8-yl]amino]benzoyl]azetidin-3-yl]-4-hydroxypyrrolidine-2-carboxamide] |
| 0.357 | O=C(NC1CN(C(=O)c2ccc(Nc3nccn4c(-c5c[nH]nc5C(F)(F)F)cnc34)cc2Cl)C1)[C@@H]1C[C@@H](O)CN1 [Example 175, (2S,4R)-N-[1-[2-chloro-4-[[3-[3-(trifluoromethyl)-1H-pyrazol-4-yl]imidazo[1,2-a]pyrazin-8-yl]amino]benzoyl]azetidin-3-yl]-4-hydroxypyrrolidine-2-carboxamide] |
| 0.409 | CCc1cc(Nc2nccn3c(-c4c[nH]nc4C(F)(F)F)cnc23)ccc1C(=O)NCCOCC(C)(C)N [Example 176, N-[2-(2-amino-2-methylpropoxy)ethyl]-2-ethyl-4-[[3-[3-(trifluoromethyl)-1H-pyrazol-4-yl]imidazo[1,2-a]pyrazin-8-yl]amino]benzamide hydrochloride] |
| 0.11 | O=C(c1ccc(Nc2nccn3c(-c4cn(Cc5cc[nH]n5)nc4C(F)(F)F)cnc23)cc1Cl)N1CCNCC1 [Example 177, [2-chloro-4-[[3-[1-(1H-pyrazol-3-ylmethyl)-3-(trifluoromethyl)pyrazol-4-yl]imidazo[1,2-a]pyrazin-8-yl]amino]phenyl]-piperazin-1-ylmethanone] |
| 0.4 | C#CCNCCCNC(=O)c1ccc(Nc2nccn3c(-c4c[nH]nc4C(F)(F)F)cnc23)cc1CC [Example 184, 2-ethyl-N-[3-(prop-2-ynylamino)propyl]-4-[[3-[3-(trifluoromethyl)-1H-pyrazol-4-yl]imidazo[1,2-a]pyrazin-8-yl]amino]benzamide] |
| 0.159 | C[C@H](N)C(=O)N1CCN(C(=O)c2ccc(Nc3nccn4c(-c5cn(CC#N)nc5C(F)(F)F)cnc34)cc2Cl)CC1 [Example 187, 2-[4-[8-[4-[4-[(2S)-2-aminopropanoyl]piperazine-1-carbonyl]-3-chloroanilino]imidazo[1,2-a]pyrazin-3-yl]-3-(trifluoromethyl)pyrazol-1-yl]acetonitrile] |

Same assay, conditions: strain ATCC 17961, OD600 growth over 16 h, read-out: A. baumannii ATCC 17961 IC90

| Structure (SMILES) | IC90 [µM] |
| --- | --- |
| NC1CN(C(=O)c2ccc(Nc3nccn4c(-c5c[nH]nc5C(F)(F)F)cnc34)cc2Cl)C1 [Example 167] | 0.485 |
| N#CCn1cc(-c2cnc3c(Nc4ccc(C(=O)N5CCN(C(=O)N6CCC(N)CC6)CC5)c(Cl)c4)nccn23)c(C(F)(F)F)n1 [Example 178, 2-[4-[8-4-[4-(4-aminopiperidine-1-carbonyl)piperazine-1-carbonyl]-3-chloroanilino]imidazo[1,2-a]pyrazin-3-yl]-3-(trifluoromethyl) pyrazol-1-yl]acetonitrile formate] | 0.161 |
| N#CCn1cc(-c2cnc3c(Nc4ccc(C(=O)N5CCN(C(=O)N6CC[C@@H](N)C6)CC5)c(Cl)c4)nccn23)c(C(F)(F)F)n1 [Example 179, 2-[4-[8-4-[4-[(3R)-3-aminopyrrolidine-1-carbonyl]piperazine-1-carbonyl]-3-chloroanilino]imidazo[1,2-a]pyrazin-3-yl]-3-(trifluoromethyl) pyrazol-1-yl]acetonitrile formate] | 0.181 |
